Results from patent US20090232866A1, “Oligopeptides as coating material for medical products” (priority 2003, published 2009).
*: point of attachment. CH2Cl = ClC*

Test system: coronary arteries of pigs
Test: Balloon angioplasty and stent implantation in pig coronary arteries, IVUS assessment of neointimal proliferation after 4 weeks
Format: in vivo, Domestic pigs
Settings: local administration via perfusion balloon, 4 weeks after balloon angioplasty and stent implantation, 7 pigs per group

With “Ac-Tyr-Val-Ala-Asp-chloromethylketone (Ac-YVAD-CH2Cl) [Ac-YVAD-CMK]” the “reduction of maximum plaque area in comparison with the negative control group” value (fraction of control value) was “approximately ⅓”, the “reduction of plaque volume in comparison with the negative control group” value (fraction of control value) was “approximately ⅙” and the “reduction of the stenotisized area in comparison with the negative control group” value (percent of control value) was “approximately 40%”.
